Reference: ChEMBL document CHEMBL1121411, “Convenient synthesis of 10-deazaaminopterin via a pteridine ylide” (J Med Chem, 1980)

Tested on: HEp-2
Assay: Tested for cloning suppression test against H.Ep.-2 cells
Assay type: functional
Conditions: Homo sapiens, read-out: ED50 (the source's name)

SMILES	EC50
Nc1cc(N)c2cc(CCc3ccc(C(=O)NC(CCC(=O)O)C(=O)O)cc3)ccc2c1 (configuration not stated)	0.9 nM
CN(Cc1cnc2nc(N)nc(N)c2n1)c1ccc(C(=O)N[C@@H](CCC(=O)O)C(=O)O)cc1 [METHOTREXATE]	2.4 nM
